From article PMC12350170, “Structural basis for the synergistic assembly of the snRNA export complex” (Nature Structural & Molecular Biology, 2025)

How the values were obtained:
Assay type in all cases: binding
[1] = target: T1, Ran (RanGTP) in the snRNA export complex with CRM1, PHAX, CBC (Homo sapiens, UniProt P62826, Q69L); test: cryo-EM structure of the complex; conditions: Mg2+ present; Ran nucleotide site; complex with CRM1, phosphorylated PHAX, CBC and capped RNA
T1 construct: Ran Q69L as His-tag fusion from E. coli, loaded with GTP; His-CRM1; CK2-phosphorylated full-length PHAX; CBP80ΔNLS–CBP20; capped 14-nt RNA; with Exportin-1; Phosphorylated adapter RNA export protein

CBC (CBP80ΔNLS–CBP20) = target: T2, CBC (CBP80ΔNLS–CBP20) (Homo sapiens, UniProt P52298); test: isothermal titration calorimetry
T2 construct: gene NCBP2; heterodimer; CBP80ΔNLS (lacks N-terminal 19 residues) from High Five insect cells; CBP20 as His-GST fusion from E. coli, tag cleaved by TEV
T2 sequence (P52298 2-156): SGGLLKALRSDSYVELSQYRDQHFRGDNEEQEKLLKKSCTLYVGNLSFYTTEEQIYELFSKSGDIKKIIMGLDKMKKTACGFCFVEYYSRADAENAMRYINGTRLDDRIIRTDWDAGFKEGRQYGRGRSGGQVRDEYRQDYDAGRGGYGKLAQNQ
T2 sequence (Q09161 20-790 partner): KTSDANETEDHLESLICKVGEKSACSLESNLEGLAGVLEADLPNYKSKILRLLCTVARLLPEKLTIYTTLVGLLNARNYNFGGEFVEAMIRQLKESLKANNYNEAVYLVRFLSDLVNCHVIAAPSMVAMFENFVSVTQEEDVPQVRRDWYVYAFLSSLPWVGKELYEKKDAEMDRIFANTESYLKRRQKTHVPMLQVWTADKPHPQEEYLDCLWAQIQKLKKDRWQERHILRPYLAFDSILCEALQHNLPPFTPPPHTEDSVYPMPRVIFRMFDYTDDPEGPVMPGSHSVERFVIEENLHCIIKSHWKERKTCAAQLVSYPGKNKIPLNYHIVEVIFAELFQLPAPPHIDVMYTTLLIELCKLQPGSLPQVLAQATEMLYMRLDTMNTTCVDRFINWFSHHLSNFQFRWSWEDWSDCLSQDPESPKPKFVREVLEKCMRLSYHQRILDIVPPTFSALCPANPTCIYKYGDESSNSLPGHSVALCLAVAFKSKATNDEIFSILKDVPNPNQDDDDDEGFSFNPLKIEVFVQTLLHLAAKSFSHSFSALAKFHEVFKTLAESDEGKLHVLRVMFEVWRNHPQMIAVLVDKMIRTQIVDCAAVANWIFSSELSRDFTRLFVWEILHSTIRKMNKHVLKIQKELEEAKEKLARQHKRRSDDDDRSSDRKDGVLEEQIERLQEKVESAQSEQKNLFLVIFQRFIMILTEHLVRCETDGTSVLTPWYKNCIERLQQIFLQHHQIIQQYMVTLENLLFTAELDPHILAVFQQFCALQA

[2] = target: T3, CBC in complex with PHAX^103–196 (Homo sapiens, UniProt P52298); test: isothermal titration calorimetry
T3 construct: gene NCBP2; CBC (CBP80ΔNLS lacking N-terminal 19 residues; CBP20, tag cleaved) plus PHAX residues 103-196 made as His-MBP fusion in E. coli, not phosphorylated; Phosphorylated adapter RNA export protein
T3 sequence (Q9H814 103-196 partner, one chain of several): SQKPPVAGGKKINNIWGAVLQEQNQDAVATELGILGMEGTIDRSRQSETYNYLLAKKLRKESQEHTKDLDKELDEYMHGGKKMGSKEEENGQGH

Structure (SMILES)	cryo-EM structure of the complex [1]	Kd (CBC (CBP80ΔNLS–CBP20)) [nM]	Kd [2] [nM]
Nc1nc2c(ncn2[C@@H]2O[C@H](COP(=O)(O)OP(=O)(O)OP(=O)(O)O)[C@@H](O)[C@H]2O)c(=O)[nH]1 [GTP]	the catalytic mutant of Ran (Q69L) bound to GTP		
C[n+]1cn([C@@H]2O[C@H](COP(=O)(O)OP(=O)(O)OP(=O)(O)O)[C@@H](O)[C@H]2O)c2nc(N)[nH]c(=O)c21 [m^7GTP]		300	
C[n+]1cn([C@@H]2O[C@H](COP(=O)(O)OP(=O)(O)OP(=O)(O)OC[C@H]3O[C@@H](n4cnc5c(=O)[nH]c(N)nc54)[C@H](O)[C@@H]3O)[C@@H](O)[C@H]2O)c2nc(N)[nH]c(=O)c21 [m^7GpppG]		96	100
